Measured values as given in patent publication US20130115628A1, “METHOD FOR SELECTION OF CHEMOTHERAPEUTIC AGENTS FOR ADENOCARCINOMA CANCER” (VENTANA MEDICAL SYSTEMS, INC., priority 2011, published 2013).

What was measured:
[1] = system: pancreatic adenocarcinoma; assay: Retrospective study of tumor hENT1 expression (IHC, SP120) and overall survival in RTOG 9704 patients given adjuvant gemcitabine or 5FU; assay type: in vivo, human; set-up: Median OS in Gem hENT1-Low Patients / Median OS in Gem hENT1-High Patients: unit not given here; settings: for median OS as hENT1 expression increases from No to Low to High: Method Five (percent negative staining), FIG. 18; for median OS as hENT1 expression increases from Negative to Weak to Moderate to Strong: Method Four (staining intensity), FIG. 30; for median OS as hENT1 expression (H-score subgroup) increases: Method One (H-score), FIG. 22; for OS across High, Mid and No hENT1 subgroups: Method Six with No hENT1 category (membranes resolvable at 10×), FIGS. 33-34; for OS of Low hENT1 subgroup compared to High hENT1 subgroup: Method Six; for median OS as hENT1 expression increases from Negative to Segmental to Diffuse: Method Three (staining pattern), FIG. 26; for OS of subgroup N, 20× or 40× compared to subgroup PP at 2×, 4× or 10×: Method Two (magnification), FIGS. 15-16; for HR (CI) for hENT1-Low vs -High in Gem Patients / HR for Gem vs 5-FU in hENT1-High Patients / HR for Gem vs 5-FU in hENT1-Low Patients: overall survival
Description: Method One for determining a hENT1 endpoint is an H-score. The H-score is a continuous variable that takes into account both the percentage of cells that are positive for the antigen in question, as well as the intensity of staining with the relevant antibody (McCarty et al. (1986) Cancer Research (Supp) 46, 4244s-4248s). A scoring algorithm was used to capture the hENT1 expression results. […]
Method Four for determining a hENT1 endpoint is based on highest percentage of hENT1 membrane staining intensity. The staining intensity for a tissue core is determined using the parameters described for the H-score (0, 1+, 2+, 3+). The percentage of each parameter represented by the tumor is determined. If a score of only 0 is obtained, the endpoint is considered Negative (N). For all other samples (e.g. those that contain scores with 0, 1+, 2+, and/or 3+), the endpoint is determined by the non-0 membrane intensity represented in the highest percentage (see FIG. 1). For example, if the sample is 50% 0, 20% 1+, 30% 2+ and 0% 3+, such sample would be referred to as 2+. If 2 intensities have the same percentage then the lower of the 2 intensities is used. A staining intensity score of 0 is referred to as Negative (N), a staining intensity score of 1+ is referred to as Weak (W), a staining intensity score of 2+ is referred to as Moderate (M), and a staining intensity score of 3+ is referred to as Strong (S). If there are multiple evaluations made on a patient, the maximum result (i.e., S>M>W) from the evaluations is used. There may be circumstances where if multiple evaluations are made on a patient, the minimum result from the evaluations is used. […]

[2] = system: pancreatic cancer; settings: Stage III/IV disease, gemcitabine monotherapy; cited from earlier work
[3] = High = PP at 2×, 4× and/or 10× AND negative tumor tissue <=50%, FIGS. 7-8
[4] = High = at least 50% of tumor displays membrane staining at 10× ocular, FIGS. 4-5
[5] = 50% tumor staining, Low group: >50% of tumor is negative
[6] = Magnification (intensity), Low group: unequivocal membranes visible only at 20x, 40x or negative
[7] = Magnification and % tumor staining, Low group: membranes visible only at 20x, 40x or negative OR >=50% of tumor is negative
[8] = staining variable H-score, Low group: H-score <50

SMILES: O=c1[nH]cc(F)c(=O)[nH]1 [5FU, 5-Fluorouracil]
- median OS as hENT1 expression increases from No to Low to High [1]: do not demonstrate an improvement in OS with increasing hENT1 expression
- median OS as hENT1 expression increases from Negative to Weak to Moderate to Strong [1]: do not demonstrate an improvement in OS with increasing hENT1 expression
- median OS as hENT1 expression (H-score subgroup) increases [1]: do not demonstrate an improvement in OS with increasing hENT1 expression
- OS across High, Mid and No hENT1 subgroups [1]: do not demonstrate improvement in OS between the High, Mid and No hENT1 subgroups
- OS of Low hENT1 subgroup compared to High hENT1 subgroup [1, 3]: do not demonstrate improvement in OS between the High and Low subgroups
- OS of Low hENT1 subgroup compared to High hENT1 subgroup [1, 4]: do not demonstrate improvement in OS between the High and Low subgroups
- median OS as hENT1 expression increases from Negative to Segmental to Diffuse [1]: do not demonstrate an improvement in OS with increasing hENT1 expression
- OS of subgroup N, 20× or 40× compared to subgroup PP at 2×, 4× or 10× [1]: do not demonstrate an improvement in OS

SMILES: Nc1ccn([C@@H]2O[C@H](CO)[C@@H](O)C2(F)F)c(=O)n1 [gemcitabine]
- median OS [2]: 5-7 months
- Median OS in Gem hENT1-High Patients [1, 5]: 19.6
- Median OS in Gem hENT1-Low Patients [1, 5]: 14.2
- Median OS in Gem hENT1-High Patients [1, 6]: 21.0
- Median OS in Gem hENT1-Low Patients [1, 6]: 14.8
- Median OS in Gem hENT1-High Patients [1, 7]: 24.2
- Median OS in Gem hENT1-Low Patients [1, 7]: 14.8
- median OS as hENT1 expression increases from No to Low to High [1]: increases
- OS of No hENT1 subgroup compared to Low and High hENT1 subgroups ([1]; Method Five, FIG. 19): exhibited shorter OS
- OS of patients with observable hENT1 expression (Low and High combined) compared to no hENT1 expression ([1]; Method Five, FIG. 20): exhibit longer OS
- median OS as hENT1 expression increases from Negative to Weak to Moderate to Strong [1]: increases
- OS of negative hENT1 subgroup compared to Weak, Moderate or Strong subgroups ([1]; Method Four, FIG. 31): exhibited shorter OS
- median OS as hENT1 expression (H-score subgroup) increases [1]: increases
- OS of subgroup H-score<=20 compared to H-score between 20 and 80 and H-score>=80 ([1]; Method One, FIG. 23): exhibited shorter OS
- OS of patients with H-score>=50 compared to H-score <50 ([1]; Method One, FIG. 24): exhibited longer OS
- OS across High, Mid and No hENT1 subgroups [1]: the subgroup with No hENT1 expression exhibited the shortest OS followed by the Mid hENT1 subgroup and the High hENT1 subgroup had the longest OS
- OS of Low hENT1 subgroup compared to High hENT1 subgroup [1, 3]: exhibited shorter OS
- OS of Low hENT1 subgroup compared to High hENT1 subgroup [1, 4]: exhibited shorter OS
- median OS as hENT1 expression increases from Negative to Segmental to Diffuse [1]: increases
- OS of negative hENT1 subgroup compared to Segmental or Diffuse subgroups ([1]; Method Three, FIG. 27): exhibited shorter OS
- OS of patients with detectable hENT1 expression (S or D) compared to no hENT1 expression ([1]; Method Three, FIG. 28): exhibit longer OS
- OS of subgroup N, 20× or 40× compared to subgroup PP at 2×, 4× or 10× [1]: exhibited shorter OS
- median overall survival of hENT1-high patients compared to hENT1-low patients ([1]; for each of the hENT1 cut-offs of Table 2): longer
- HR (CI) for hENT1-Low vs -High in Gem Patients [1, 5]: 0.61
- HR for Gem vs 5-FU in hENT1-High Patients [1, 5]: 0.84
- HR for Gem vs 5-FU in hENT1-Low Patients [1, 5]: 1.37
- HR (CI) for hENT1-Low vs -High in Gem Patients [1, 6]: 0.67
- HR for Gem vs 5-FU in hENT1-High Patients [1, 6]: 0.87
- HR (CI) for hENT1-Low vs -High in Gem Patients [1, 7]: 0.58
- HR for Gem vs 5-FU in hENT1-High Patients [1, 7]: 0.77
- HR (CI) for hENT1-Low vs -High in Gem Patients [1, 8]: 0.63
- HR for Gem vs 5-FU in hENT1-High Patients [1, 8]: 0.86
- HR for Gem vs 5-FU in hENT1-Low Patients [1, 8]: 1.35
- Median OS in Gem hENT1-High Patients [1, 8]: 19.6
- Median OS in Gem hENT1-Low Patients [1, 8]: 14.2
